Experimental data from ChEMBL document CHEMBL1121659 (J Med Chem, 1981).
Activity calls are given as the source filed them. No cut-off for these calls is given here.

Assays:
Mus musculus [1] = test: Compound was evaluated for the dose required for protection against MES-induced seizures after 4 hours of intraperitoneal administration; assay type: functional
Mus musculus [2] = test: Compound was evaluated for the dose required for protection against scMET-induced seizures after 4 hours of intraperitoneal administration at the doses< = 0.77-0.90 mM/kg; Inactive; assay type: functional, organism-based
Mus musculus [3] = test: Compound was evaluated for the neuro toxicity up to 4 hours after doses of <=300 mg/kg administered intraperitoneally; No toxicity; assay type: organism-based; conditions: in vivo, ip
Mus musculus [4] = test: Compound was evaluated for the dose required for protection against MES-induced seizures after 4 hours of intraperitoneal administration; Inactive; assay type: functional, organism-based
Mus musculus [5] = test: Compound was evaluated for the dose required for protection against scMET-induced seizures after 4 hours of intraperitoneal administration; Inactive; assay type: functional, organism-based

Structure (SMILES) | Activity (Mus musculus [1]) [mmol/kg] | Activity (Mus musculus [2]) | Neurotoxicity (Mus musculus [3]) | Activity (Mus musculus [4]) | Activity (Mus musculus [5])
O=C1NC(=O)C(c2ccccc2)(c2ccc(C(F)(F)F)cc2)N1 (stereo not drawn) | 0.94 | inactive | No toxicity |  | 
Cc1cccc(C2(c3cccc(C(F)(F)F)c3)NC(=O)NC2=O)c1 (stereo in doubt; 9) |  |  |  | inactive | inactive
O=C1NC(=O)C(c2ccccc2)(c2cccc(C(F)(F)F)c2)N1 (stereo not drawn) | 0.31 | inactive | No toxicity |  | 
